# Measured values from ChEMBL document CHEMBL4145638 (J Med Chem, 2018).
# Tests used:
# Neuraminidase [1] = target: T1, Neuraminidase (Influenza A virus, UniProt B4URF0); design: species or system A/Babol/36/2005(H3N2)
# Neuraminidase [2] = target: T1, Neuraminidase
# Neuraminidase [3] = target: T1, Neuraminidase; design: species or system A/Anhui/1/2013(H7N9)
# Neuraminidase [4] = target: T1, Neuraminidase; design: species or system Influenza A virus (A/California/04/2009(H1N1))
# in vitro [5] = conditions: chicken, chicken embryo fibroblasts
# [6] = target: Neuraminidase (Influenza A virus (A/Memphis/1/1971(H3N2)), UniProt P03471); experiment: Inhibition of Influenza A virus (H3N2) neuraminidase activity
# Sequence of Neuraminidase (Influenza A virus (A/Memphis/1/1971(H3N2)), UniProt P03471) (P03471 whole entry): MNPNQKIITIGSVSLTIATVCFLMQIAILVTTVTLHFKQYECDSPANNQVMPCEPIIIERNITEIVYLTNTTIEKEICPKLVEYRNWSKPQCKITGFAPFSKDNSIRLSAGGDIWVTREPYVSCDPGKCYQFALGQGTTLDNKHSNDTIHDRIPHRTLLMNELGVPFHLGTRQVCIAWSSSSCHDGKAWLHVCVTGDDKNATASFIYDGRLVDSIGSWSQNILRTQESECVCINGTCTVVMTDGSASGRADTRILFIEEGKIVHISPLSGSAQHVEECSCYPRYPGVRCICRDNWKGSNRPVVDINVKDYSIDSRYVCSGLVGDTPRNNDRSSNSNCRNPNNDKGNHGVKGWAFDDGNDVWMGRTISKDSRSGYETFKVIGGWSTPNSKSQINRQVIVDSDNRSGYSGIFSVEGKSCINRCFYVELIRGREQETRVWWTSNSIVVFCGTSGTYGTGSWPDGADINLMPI
# Neuraminidase [7] = target: T1, Neuraminidase; experiment: Inhibition of Influenza A virus (H1N1) neuraminidase activity
# Neuraminidase [8] = target: T1, Neuraminidase; experiment: Inhibition of Influenza A virus SN33 (H1N1) neuraminidase activity using fluorogenic substrate MU-NANA pre-incubated for 30 mins before fluorogenic substrate addition and measured after 1 hr by spectrofluorometry
# [9] = target: Neuraminidase (Influenza A virus (A/Memphis/1/1971(H3N2)), UniProt P03471); experiment: Inhibition of Influenza A virus Taiwan/3446/2002 (H3N2) neuraminidase activity using fluorogenic substrate MU-NANA pre-incubated for 30 mins before fluorogenic substrate addition and measured after 1 hr by spectrofluorometry
# in vitro [10] = conditions: human, liver microsomes
# in vitro [11] = conditions: human, liver
# in vitro [12] = conditions: human, liver microsomes; remark: listed apart in the source
# in vitro [13] = conditions: human, plasma
# Mus musculus [14] = experiment: Acute toxicity in Kunming mouse assessed as mortality at 0.5 to 1 g/kg, ig; format: organism-based; conditions: in vivo, po
# [15] = Drug level in human liver microsomes treated with Ethyl(3R,4R,5S)-4-acetamido-5-((4-(diethylamino)benzyl)-amino)-3-(pentan-3-yloxy)cyclohex-1-ene-1-carboxylate assessed as compound formation in presence of NADPH by LC/MS/MS analysis; format: ADME, microsome
# in vitro [16] = conditions: dog, MDCK cells
# in vitro [17] = conditions: human, plasma; remark: listed apart in the source
# Mus musculus [18] = experiment: Acute toxicity in Kunming mouse assessed as change in body weight at 0.5 to 1 g/kg, ig; format: organism-based; conditions: in vivo, po
# Influenza A virus [19] = system: Influenza A virus
# [20] = human, plasma, 2 h, 100 µM
# Influenza A virus [21] = experiment: microbe, parasite or virus in culture; conditions: MDCK, 48 h
# in vitro [22] = conditions: human, liver microsomes; remark: listed apart in the source
# in vitro [23] = conditions: human, plasma; remark: listed apart in the source
# in vitro [24] = conditions: human, plasma; remark: listed apart in the source
# Influenza A virus [25] = experiment: microbe, parasite or virus in culture; conditions: A/Puerto Rico/8/1934(H1N1), MDCK, 48 h
# in vitro [26] = conditions: human, liver microsomes; remark: listed apart in the source
# [27] = Drug metabolism in human liver microsomes assessed as (3R,4R,5S)-4-Acetamido-5-((4(diethylamino)benzyl)amino)-3-(pentan-3-yloxy)cyclohex-1-ene-1-carboxylic acid formation in presence of NADPH by LC/MS/MS analysis; format: ADME, microsome
# in vitro [28] = conditions: human, plasma; remark: listed apart in the source
# [29] = target: Neuraminidase (Influenza A virus (A/Memphis/1/1971(H3N2)), UniProt P03471); experiment: Inhibition of Influenza A virus (A/Paris/908/97 (H3N2)) neuraminidase activity by fluorometric assay
# Neuraminidase [30] = target: T1, Neuraminidase; experiment: Inhibition of Influenza A virus (A/Paris/2590/2009(H1N1)) neuraminidase activity by fluorometric assay
# T1 sequence (B4URF0 whole entry): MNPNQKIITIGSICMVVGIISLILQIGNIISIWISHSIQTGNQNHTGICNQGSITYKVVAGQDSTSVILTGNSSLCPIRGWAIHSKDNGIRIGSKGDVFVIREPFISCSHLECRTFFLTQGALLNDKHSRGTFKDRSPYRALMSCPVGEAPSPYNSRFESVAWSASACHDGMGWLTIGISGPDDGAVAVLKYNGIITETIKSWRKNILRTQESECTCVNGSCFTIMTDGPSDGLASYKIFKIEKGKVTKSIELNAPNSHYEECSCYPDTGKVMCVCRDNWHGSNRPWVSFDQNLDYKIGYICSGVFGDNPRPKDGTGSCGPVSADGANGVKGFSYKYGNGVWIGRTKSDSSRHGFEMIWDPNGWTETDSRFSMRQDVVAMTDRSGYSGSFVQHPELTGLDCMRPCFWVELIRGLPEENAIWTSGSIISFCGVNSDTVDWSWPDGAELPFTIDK
Structure (SMILES),IC50 (Neuraminidase [1]) [nM],IC50 (Neuraminidase [2]) [nM],IC50 (Neuraminidase [3]) [nM],IC50 (Neuraminidase [4]) [nM],CC50 at 48 h (in vitro [5]) [nM],CC50 at 48 h (in vitro [16]) [nM],EC50 (Influenza A virus [21]) [nM],EC50 (Influenza A virus [25]) [nM],also measured
CCC(CC)O[C@@H]1C=C(C(=O)O)C[C@H](NCc2ccc(N(C)C)cc2)[C@H]1NC(C)=O,4.11,5.74,8.41,4.09,> 200000,–,–,–,–
CCC(CC)O[C@@H]1C=C(C(=O)O)[C@H](n2cc(C(O)CC)nn2)[C@H](N)[C@H]1NC(C)=O (stereo partly drawn),–,–,–,–,–,–,–,–,Ki [6]: 20 nM; Ki (Neuraminidase [7]): > 100 nM
CC(=O)N[C@H]1[C@H]([C@@H](O)[C@@H](O)CO)OC(C(=O)O)=C[C@@H]1NC(=N)NC(=O)CSc1cccc2ccccc12,–,–,–,–,–,–,–,–,IC50 (Neuraminidase [8]): 21 nM; IC50 [9]: 25 nM
C[C@]12CC[C@H]3[C@@H](CCC4=CC(=O)CC[C@@]43C)[C@@H]1CC[C@@H]2O [TESTOSTERONE],–,–,–,–,–,–,–,–,half-life at 10 min (in vitro [10]): 26.6 min; CLint scaled at 10 min (in vitro [11]): 46.9 mL/min/kg; microsomal CLint at 10 min (in vitro [12]): 52.1 µL/min/mg
CCC(CC)O[C@@H]1C=C(C(=O)O)C[C@H](NCc2ccc(N(CC)c3ccccc3)cc2)[C@H]1NC(C)=O,474,560,2590,698,> 200000,–,–,–,–
CCC(CC)O[C@@H]1C=C(C(=O)O)C[C@H](NCc2ccc(N(CC)CC)cc2)[C@H]1NC(C)=O,1.05,0.35,1.79,0.55,> 200000,> 250000,1700,70,"remaining at 0.5 h, 100 µM (in vitro [13]): 120%; Activity (Mus musculus [14]): Non-Toxic; half-life at 10 min (in vitro [10]): > 145 min; Drug metabolism [15]: Metabolite_Detected; CLint scaled at 10 min (in vitro [11]): < 8.6 mL/min/kg; remaining at 0 min, 100 µM (in vitro [17]): 100%; Activity (Mus musculus [18]): Non-Toxic; EC50 (Influenza A virus [19]): 610 nM; Stability [20]: 120.7%; remaining at 1 h (in vitro [22]): 95.4%; remaining at 10 min, 100 µM (in vitro [23]): 118%; microsomal CLint at 10 min (in vitro [12]): < 9.6 µL/min/mg; remaining at 1 h, 100 µM (in vitro [24]): 120%; remaining at 1 h (in vitro [26]): 82.7%"
O=C(O)Cc1ccccc1Nc1c(Cl)cccc1Cl [DICLOFENAC],–,–,–,–,–,–,–,–,half-life at 10 min (in vitro [10]): 12.3 min; CLint scaled at 10 min (in vitro [11]): 101 mL/min/kg; microsomal CLint at 10 min (in vitro [12]): 112 µL/min/mg
CCC(CC)O[C@@H]1C=C(C(=O)O)C[C@H](NCCCNc2cccc(Cl)c2C)[C@H]1NC(C)=O,–,–,–,–,–,–,–,–,IC50 [6]: 31 nM; IC50 (Neuraminidase [7]): 0.59 nM
CCC(CC)O[C@@H]1C=C(C(=O)O)C[C@H](NCc2ccc(N3CCSCC3)cc2)[C@H]1NC(C)=O,62.6,74.2,156,48.4,> 200000,> 250000,19000,4400,–
CCC(CC)O[C@@H]1C=C(C(=O)O)C[C@H](N)[C@H]1NC(C)=O [OSELTAMIVIR CARBOXYLATE],–,–,–,–,> 200000,> 250000,900,40,–
CCC(CC)O[C@@H]1C=C(C(=O)O)C[C@H](NCc2ccc(N(C)c3ccccc3)cc2)[C@H]1NC(C)=O,5.65,2.29,11.4,29.8,> 200000,> 250000,25600,1950,–
CCC(CC)O[C@@H]1C=C(C(=O)O)C[C@H](NCc2ccc(Nc3ccccc3)cc2)[C@H]1NC(C)=O,31.1,27.4,94.2,66.7,> 200000,–,–,–,–
CCC(CC)O[C@@H]1C=C(C(=O)O)C[C@H](NCc2ccc(-n3cccc3)cc2)[C@H]1NC(C)=O,327,504,1820,59.3,> 200000,> 250000,29000,690,–
CCC(CC)O[C@@H]1C=C(C(=O)O)C[C@H](NCc2ccc(NC(C)=O)cc2)[C@H]1NC(C)=O,–,–,–,–,> 200000,–,–,–,–
CC(=O)N[C@H]1[C@H]([C@H](O)[C@H](O)CO)OC(C(=O)O)=C[C@@H]1NC(=N)N [ZANAMIVIR],–,–,–,–,> 200000,> 250000,270,50,–
CCC(CC)O[C@@H]1C=C(C(=O)O)C[C@H](NCc2ccc(N3CCCCC3)cc2)[C@H]1NC(C)=O,17.1,20.7,40.5,18.6,> 200000,–,–,–,–
CCOC(=O)C1=C[C@@H](OC(CC)CC)[C@H](NC(C)=O)[C@@H](NCc2ccc(N(CC)CC)cc2)C1,–,–,–,–,–,–,–,–,half-life at 10 min (in vitro [10]): 8.4 min; Drug metabolism [27]: Metabolite_Detected; CLint scaled at 10 min (in vitro [11]): 149 mL/min/kg; remaining at 1 h (in vitro [22]): 87.1%; microsomal CLint at 10 min (in vitro [12]): 165 µL/min/mg; remaining at 1 h (in vitro [26]): 0.6%
CCC(CC)O[C@@H]1C=C(C(=O)O)C[C@H](NCc2ccc(-c3cccs3)cc2)[C@H]1NC(C)=O,354,–,–,21.3,> 200000,–,–,–,–
CCC(CC)O[C@@H]1C=C(C(=O)O)C[C@H](NCc2ccc(-n3cccn3)cc2)[C@H]1NC(C)=O,869,593,9120,297,> 200000,–,–,–,–
CCC(CC)O[C@@H]1C=C(C(=O)O)[C@H](n2cc(C(O)CC)nn2)[C@H](NC(=N)N)[C@H]1NC(C)=O (stereo partly drawn),–,–,–,–,–,–,–,–,Ki [6]: 4 nM; Ki (Neuraminidase [7]): > 100 nM
CC(C)[N+](C)(CCOC(=O)C1c2ccccc2Oc2ccccc21)C(C)C [PROPANTHELINE BROMIDE],–,–,–,–,–,–,–,–,"remaining at 0.5 h, 100 µM (in vitro [13]): 44.6%; remaining at 0 min, 100 µM (in vitro [17]): 100%; remaining at 10 min, 100 µM (in vitro [23]): 73.4%; remaining at 2 h, 100 µM (in vitro [28]): 1.8%; remaining at 1 h, 100 µM (in vitro [24]): 16.8%"
CC(=O)N[C@H]1[C@H]([C@H](O)[C@H](O)CO)OC(C(=O)O)=C(C/C=C/c2ccc(C)cc2)[C@@H]1O,–,–,–,–,–,–,–,–,Ki [29]: 219000 nM; Ki (Neuraminidase [30]): 1700 nM
CCC(CC)O[C@@H]1C=C(C(=O)O)C[C@H](NCc2ccc(N3CCCC3)cc2)[C@H]1NC(C)=O,1.81,2.13,6.51,2.31,> 200000,> 250000,2350,220,–
